Where a name gives a salt, the structure may show the parent alone. Read-outs that look alike come from different tables or passages of the source.
How the values were obtained:
[1] = target: T1, HCV polymerase H544 1a 3X (UniProt P27958); assay: Assay of enzyme (HCV polymerase) inhibitory activity, H544 1a 3X; type: biochemical
T1 construct: fused on or other part: 6 His tag at the C-terminus, for the BK (1b) enzyme

[2] = target: T2, HCV polymerase H544 1b 3X (Hepatitis C virus genotype 1b, UniProt P26663); assay: Assay of enzyme (HCV polymerase) inhibitory activity, H544 1b 3X; type: biochemical, HCV BK strain
T2 construct: a region encoding NS5B (J Virol 1991 March, 65(3), 1105-13, 544 amino acids after deletion of 47 amino acids on the C-terminal); 6 His (C); made in house; host or cells: Escherichia coli
Excerpt: The evaluation of the HCV polymerase inhibitory activity of the compound of the present invention is explained in the following. This polymerase is an enzyme coded for by the non-structural protein region called NS5B on the genome RNA of HCV (EMBO J., 15:12-22, 1996).
Using, as a template, a cDNA clone corresponding to the full length genome RNA of HCV BK strain obtained from the blood of a patient with hepatitis C, a region encoding NS5B (J Virol 1991 March, 65(3), 1105-13, 544 amino acids after deletion of 47 amino acids on the C-terminal) was amplified by PCR. The objective gene was prepared by adding a 6 His tag {base pair encoding 6 continuous histidine (His)} to the 3′ end thereof and transformed to Escherichia coli. The Escherichia coli capable of producing the objective protein was cultured. The obtained cells were suspended in a buffer solution and crushed in a microfluidizer. The supernatant was obtained by centrifugation and applied to various column chromatographys {mono-S, Sephacryl S-200 (Pharmacia)}, inclusive of metal chelate chromatography, to give a standard enzyme product.
Using a synthetic primer designed based on the sequence of HCV genomic 3′ untranslated region, a DNA fragment (148 bp) containing polyU and 3′X sequence was entirely synthesized and cloned into plasmid pBluescript SK II (+) (Stratagene). The cDNA encoding full length NS5B, which was prepared in i) above, was digested with restriction enzyme KpnI to give a cDNA fragment containing the nucleotide sequence of from the restriction enzyme cleavage site to the termination codon. This cDNA fragment was inserted into the upstream of 3′ untranslated region of the DNA in pBluescript SK II(+) and ligated. The about 450 bp inserted DNA sequence was used as a template in the preparation of substrate RNA. This plasmid was cleaved immediately after the 3′X sequence, linearized and purified by phenol-chloroform treatment and ethanol precipitation to give DNA.
RNA was synthesized (37° C., 3 hr) by run-off method using this purified DNA as a template, a promoter of pBluescript SK II(+), MEGAscript RNA synthesis kit (Ambion) and T7 RNA polymerase. DNase I was added and the mixture was incubated for 1 hr. The template DNA was removed by decomposition to give a crude RNA product. This crude product was treated with phenol-chloroform and purified by ethanol precipitation to give the objective substrate RNA.
This RNA was applied to formaldehyde denaturation agarose gel electrophoresis to confirm the quality thereof and preserved at −80° C.
A test substance (compound of the present invention) and a reaction mixture (30 μl) having the following composition were reacted at 25° C. for 90 min. 10% Trichloroacetic acid at 4° C. and 1% sodium pyrophosphate solution (150 μl) were added to this reaction mixture to stop the reaction. The reaction mixture was left standing in ice for 15 min to insolubilize RNA. This RNA was trapped on a glass filter (Whatman GF/C and the like) upon filtration by suction. This filter was washed with a solution containing 1% trichloroacetic acid and 0.1% sodium pyrophosphate, washed with 90% ethanol and dried. A liquid scintillation cocktail (Packard) was added and the radioactivity of RNA synthesized by the enzyme reaction was measured on a liquid scintillation counter.
The HCV polymerase inhibitory activity (IC50) of the compound of the present invention was calculated from the values of radioactivity of the enzyme reaction with and without the test substance.
The results are shown in Table 18, wherein each symbol means that IC50 falls within the following range.
Reaction mixture: HCV polymerase (0.5 μg/ml) obtained in i), substrate RNA (5 μg/ml) obtained in ii), ATP (50 μM), GTP (50 μM), CTP (50 μM), UTP (2 μM), [5,6-^3H] UTP (46 Ci/mmol (Amersham), 1 μCi) 20 mM Tris-HCl (pH 7.5), EDTA (1 mM), MgCl2 (5 mM), NaCl (50 mM), DTT (1 mM), BSA (0.01%)

[3] = 25° C., 90 min, [5,6-3H]UTP incorporation, read-out: H544 1a 3X IC50

T2 sequence (P26663 2420-2963): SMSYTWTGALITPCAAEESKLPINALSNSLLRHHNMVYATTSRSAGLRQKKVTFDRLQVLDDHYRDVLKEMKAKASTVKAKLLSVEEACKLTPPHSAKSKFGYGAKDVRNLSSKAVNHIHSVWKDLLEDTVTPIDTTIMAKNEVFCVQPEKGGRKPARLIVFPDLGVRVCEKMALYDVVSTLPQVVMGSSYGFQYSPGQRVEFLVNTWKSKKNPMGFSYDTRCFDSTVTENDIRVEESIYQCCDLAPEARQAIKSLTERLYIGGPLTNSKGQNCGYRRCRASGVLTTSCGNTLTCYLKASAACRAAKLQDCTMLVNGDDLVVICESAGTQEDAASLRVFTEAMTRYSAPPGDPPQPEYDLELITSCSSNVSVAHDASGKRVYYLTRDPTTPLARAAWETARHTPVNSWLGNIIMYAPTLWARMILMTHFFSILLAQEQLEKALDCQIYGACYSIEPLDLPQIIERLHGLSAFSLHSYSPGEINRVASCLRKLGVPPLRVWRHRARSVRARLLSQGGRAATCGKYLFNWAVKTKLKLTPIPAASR

Row | Structure (SMILES) | IC50 [1, 3] [nM] | IC50 [2] [nM] | IC50 ([1]; read-out: H544 1a 3X IC50, 25° C., 90 min, [5,6-3H]UTP incorporation) [nM]
1 | CC(=O)N(C)c1ccc(N2CCN(S(C)(=O)=O)CC2)c(COc2ccc(-c3c(C4CCCCC4)c4sc(C(=O)O)cc4n3C)cc2)c1 [Example 20, 5-{4-[5-(N-acetyl-N-methylamino)-2-(4-methanesulfonylpiperazin-1-yl)benzyloxy]phenyl}-6-cyclohexyl-4-methyl-4H-thieno[3,2-b]pyrrole-2-carboxylic acid hydrochloride] | < 100 | < 100 | 
2 | O=C(O)c1cc2nc(-c3ccc(OCc4cc(N5CCCC5=O)ccc4-c4ccc(Cl)cc4)cc3)n(C3CCCCC3)c2s1 [Example 3, 2-{4-[4′-chloro-4-(2-oxopyrrolidin-1-yl)biphenyl-2-ylmethoxy]phenyl}-3-cyclohexyl-3H-thieno[2,3-d]imidazole-5-carboxylic acid hydrochloride] |  | < 100 | 100 to 1000
3 | COc1ccc(-c2c(C3CCCCC3)c3sc(C(=O)O)cc3n2CC(=O)N2CCC(N(C)C)CC2)cc1 [Example 27, 6-cyclohexyl-4-(4-dimethylaminopiperidino)carbonylmethyl-5-(4-methoxyphenyl)-4H-thieno[3,2-b]pyrrole-2-carboxylic acid] | < 100 | < 100 | 
4 | CN(C)C(=O)Cn1c(-c2ccc(Oc3ccccc3)cc2)c(C2CCCCC2)c2sc(C(=O)O)cc21 [Example 42, 6-cyclohexyl-4-dimethylcarbamoylmethyl-5-(4-phenoxyphenyl)-4H-thieno[3,2-b]pyrrole-2-carboxylic acid] | < 100 | < 100 | 
5 | Cn1c(-c2ccc(OCc3cc(S(C)(=O)=O)ccc3N3CCOCC3)cc2)c(C2CCCCC2)c2sc(C(=O)O)cc21 [Example 23, 6-cyclohexyl-5-[4-(5-methanesulfonyl-2-morpholinobenzyloxy)phenyl]-4-methyl-4H-thieno[3,2-b]pyrrole-2-carboxylic acid hydrochloride] | < 100 | < 100 | 
6 | O=C(O)c1cc2c(s1)c(C1CCCCC1)c(-c1ccc(OCc3ccccc3)cc1)n2Cc1ccccc1 [Example 45, 4-benzyl-5-(4-benzyloxyphenyl)-6-cyclohexyl-4H-thieno[3,2-b]pyrrole-2-carboxylic acid] | 100 to 1000 | 100 to 1000 | 
7 | CCN1CCN(C(=O)Cn2c(-c3ccc(OC)cc3)c(C3CCCCC3)c3sc(C(=O)O)cc32)CC1 [Example 26, 6-cyclohexyl-4-(4-ethylpiperazin-1-yl)carbonylmethyl-5-(4-methoxyphenyl)-4H-thieno[3,2-b]pyrrole-2-carboxylic acid] | 100 to 1000 | < 100 | 
8 | COc1ccc(-c2c(C3CCCCC3)c3sc(C(=O)O)cc3n2CC(=O)N(C)C)cc1 [Example 21, 6-cyclohexyl-4-dimethylcarbamoylmethyl-5-(4-methoxyphenyl)-4H-thieno[3,2-b]pyrrole-2-carboxylic acid] | 100 to 1000 | < 100 | 

From US20090036444A1, “5-5-Membered fused heterocyclic compound and use thereof as HCV polymerase inhibitor” (priority 2003, published 2009)
